According to PubChem BioAssay AID179 (DTP/NCI, 2004):
Values joined by “and” are separate entries in the source; they are usually repeats but may differ in a detail not shown here. Equal entries are not always repeated. Active and inactive are the calls of the source.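 How the source made its calls: active means compounds giving half or more protection of infected cells from virus-caused growth loss, again on retest; inactive means the rest.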

Tested on: CEM cells HIV-1 protection, formazan growth assay
Assay: NCI AIDS Antiviral Assay
Details: for IC50: measured here: growth of uninfected CEM cells
Outline: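 Five concentrations of each compound were applied to infected and uninfected human CEM cells. Protection from HIV-1 was judged from growth measured with a soluble formazan assay.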

SMILES | EC50 | IC50 | outcome
C=C1CC2[C@H](C)C(=O)CCC2(C)C2=C1C1CCC(C(C)CCC(=C)C(C)C(=O)O)C1(C)CC2=O (stereo partly specified) | > 200 µM | 66.1 µM | 
O=C1C2ON3c4ccccc4C(=O)C3(c3ccccc3)C2C(=O)N1c1ccccc1 (stereo unspecified) | > 18.2 µM | > 18.2 µM | 
Nn1c(=S)[nH]c2ccccc2c1=O | > 200 µM | > 200 µM | 
Nc1cnc(N2CCN(c3ncc(N)cc3N)CC2)c(N)c1 | > 95.5 µM | 77.6 µM | 
O=C1C[C@@H]([C@H](NC(=O)OCc2ccccc2)C(=O)O)ON1 |  |  | inactive
NCCC1C2CC3CC(C2)CC1C3 (stereo unspecified) |  |  | inactive
COc1cccc(/C=N/[N-]C(N)=O)c1[O-].[Ni+2].[OH3+] | > 166 µM | 0.0525 µM | 
CCOC(=O)C1(C/C=C/CBr)Cc2ccccc2C1=O (stereo unspecified) | > 200 µM | 1.66 µM | 
O=C1/C(=C/c2ccc(Cl)cc2)CCc2ccccc21 | > 19.5 µM | > 19.5 µM | 
CC1=Nc2sc3c(c2C2=NCCN12)CCCC3 | > 200 µM | 34.7 µM | 
Cc1c(O)c2ccccc2n(C)c1=O | > 200 µM | > 200 µM | 
CC(C)N(C(=O)C12C3C4C5C3C1(C#N)C5C42)C(C)C (stereo unspecified) | > 195 µM | > 195 µM | 
COc1ccc2c(CCNC(C)=O)c(C(C)=O)[nH]c2c1 |  |  | inactive
COc1ccccc1/C=C1\C=Cc2ccccc21 | > 204 µM | 31.6 µM | 
COC(=O)c1cc(C(CCl)c2cc(C(=O)OC)c(O)cc2C)c(C)cc1O | > 200 µM | 112 µM | 
CN(C)C(=O)OC(Cn1cncn1)c1ccc(Cl)cc1Cl (stereo unspecified) | > 537 µM | 275 µM | 
CC(=O)[O-].COc1cccc(/C=N\[N-]C(=O)c2ccncc2)c1.[Cu+2].[OH3+].[OH3+].c1cnc2c(c1)ccc1cccnc12 | > 200 µM | 61.7 µM | 
CCCCCSCCCCCCCC(=O)O | > 200 µM | 58.9 µM | 
N=C1C(=N)c2ccccc2-c2ccccc21 | > 200 µM | 0.407 µM | 
O=C(Nc1ccc(Cl)c(Cl)c1)C1C(=O)N(c2ccc(Cl)c(Cl)c2)C(=O)/C1=N\O (stereo unspecified) |  |  | inactive
CCC(=O)CCCC=C(c1cc(Cl)c(OC)c(C(=O)OC)c1)c1cc(Cl)c(OC)c(C(=O)OC)c1 | 1.45 µM | 40.7 µM | 
COc1ccc(CCNC(=S)/N=C/C2=C(O)CC(C)(C)CC2=O)cc1OC | > 200 µM | > 200 µM | 

SMILES | EC50 | IC50 | outcome
Cc1ccc(S(=O)(=O)c2[nH]cc(/C(=C\C3CCCCC3)[N+](=O)[O-])c2C2CCCCC2)cc1 | > 2 µM | 1.15 µM | 
CN(CCc1ccccn1)c1nc(=[N+](C)C)ss1 |  |  | inactive
C[C@@]1(CO)[C@H](O)CC[C@@]2(C)[C@H]1CC[C@H]1C[C@@H]3C[C@@]12CC[C@@]3(O)COC(=O)CN | > 575 µM | 0.331 µM | 
O=C1c2c(O)cc(O)cc2OC(c2ccc(O)cc2O)C1O (stereo unspecified) | > 200 µM | 93.3 µM | 
O=C1C=C(N2CCCCC2)c2cnccc2C1=O |  |  | inactive
CC(C)(CCNc1c2ccccc2nc2cccc([N+](=O)[O-])c12)[N+](C)(C)[O-] | > 0.2 µM | 0.12 µM | 
N#CCC(=O)N1CCCOCCC1 | > 1380 µM | > 1380 µM | 
O=C1OC(c2ccccc2)=N/C1=C\c1ccco1 | > 75.9 µM | 60.3 µM | 
COc1ccc(N=C2C(=Nc3ccc(OC)cc3)N(c3ccccc3)C(=S)N2N=C=C2Sc3ccccc3N2C)cc1 | > 200 µM | 25.7 µM | 
CN(C)[C@@H]1C(=O)C(C(=O)NCN2CCN(C(=N)N=C(N)N)CC2)=C(O)[C@@]2(O)C(=O)C3=C(O)c4c(O)cccc4[C@@](C)(O)[C@H]3C[C@@H]12 | > 37.2 µM | 0.257 µM | 
CCCc1cc(-c2ccc(N=Nc3cc(S(=O)(=O)O)c4ccccc4c3N)c(CCC)c2)ccc1N=Nc1cc(S(=O)(=O)O)c2ccccc2c1N | 105 µM | 182 µM | 
O=C(NNc1ccccc1)NNc1ccccc1 (tested in a mixture with another compound) | > 200 µM | 31.6 µM | 
O=C1/C(=C\c2cccc(Oc3ccccc3)c2)SC(c2ccccc2)N1c1cc(Cl)ccc1Cl (stereo unspecified) | > 200 µM | 9.33 µM | 
O=[N+]([O-])c1ccc(-[n+]2ccc3ccccc3c2)c([N+](=O)[O-])c1 | > 759 µM | 4.79 µM | 
COc1ccc2c(C(=O)O)cc3ccccc3c2c1OC |  |  | inactive
COC(=O)N(CCc1ccccc1)C(C)(C)C#N | > 29.5 µM | > 29.5 µM | 
C/C(C=C(C#N)C#N)=C\c1cccc(F)c1 | > 123 µM | 14.1 µM | 
O=C1CC2Sc3ccccc3N=C2N1c1ccc(Cl)cc1Cl (stereo unspecified) | > 269 µM | 47.9 µM | 
Clc1ccc([S+](c2ccc(Cl)cc2)C(Cl)(Cl)C(Cl)(Cl)Cl)cc1 | > 52.5 µM | 7.24 µM | 
CCN(CC)C/C(C)=C(/c1ccccc1)c1ccccc1S(N)(=O)=O | > 200 µM | > 200 µM | 
Cc1ccc2c(c1)-c1c(C#N)c(N)nc(-c3ccc(Cl)cc3)c1CCS2(=O)=O | > 200 µM | 3.16 µM | 
COCC12CCC(OC)C34C5CC6(O)C(OC)C=C(C5C6OC(=O)c5ccccc5)C(C(OC)C13)C4N(C)C2 (stereo unspecified) |  |  | inactive

SMILES | EC50 | IC50 | outcome
CN1C2C=CC(=O)C1C(C#N)C2 (stereo unspecified) | > 200 µM | 34.7 µM and 115 µM | 
C=C1SC(=Nc2ccc(Cl)cc2)N(c2nc(Cl)nc(Cl)n2)C12CCCCC2 | > 100 µM | > 100 µM | 
C=CCCCCO/N=C/c1c2c(O)c3c(O)c(C)c4c(c3c1O)C(=O)C(C)(O/C=C/C(OC)C(C)C(OC(C)=O)C(C)C(O)C(C)C(O)C(C)/C=C/C=C(\C)C(=O)N2)O4 (stereo unspecified) | > 200 µM | 7.41 µM | 
CC1(C)COC2=C(C1)C(=O)c1ccccc1C2=O | > 200 µM | 0.708 µM | 
CCCCn1c(-c2ccccc2)cs/c1=N\NC(=O)Cn1c(C)nc2ccccc21 | > 85.1 µM | 34.7 µM | 
O=C(N/C(=C\c1ccc([N+](=O)[O-])cc1)c1nc2[nH]c(=S)[nH]c(=O)c2[nH]1)c1ccccc1 |  |  | inactive
O=C(/C=C\c1ccc(O)c(O)c1)O[C@@H]1C[C@](O)(C(=O)O)C[C@@H](O)[C@H]1O | > 708 µM | 97.7 µM and 355 µM | 
C(=C\c1c[nH]c2ccccc12)/c1ccc2ccccc2n1 | 0.0631 µM | 16.6 µM | 
COc1ccc(NC(=S)NNC(=O)c2nsc3ccccc23)cc1 | > 138 µM | 19.1 µM | 
COc1cc2c(cc1OC)C1=NN(c3ccccc3)C(=O)C1CC2 (stereo unspecified) | > 8.51 µM | > 8.51 µM | 
CCCC1OC[C@H]2OC(n3cc(C)c(=O)[nH]c3=O)C[C@H]2N1O (stereo partly specified) | 52.5 µM | > 200 µM | 
O=S(=O)(O)C(Br)(Br)Br | > 200 µM | > 200 µM | 
CN1C(=O)c2ccccc2C1(N)c1ccccc1 (stereo unspecified) | 661 µM | 871 µM | 
O=C(/C(N=Nc1ccccc1)=C(\O)c1ccccc1)c1ccccc1 | > 21.9 µM | > 21.9 µM | 
CN(C)Cc1cc(O)c(CN(C)C)cc1O | > 200 µM | 9.33 µM | 
O=c1[nH]c2nc3ccccc3nc2[nH]c1=O |  | > 200 µM and 151 µM | 
O=C(O)C1c2ccccc2C(C(=O)O)c2ccccc21 (stereo unspecified) |  |  | inactive
CN(C)CCSC1=Nc2ccc(Cl)cc2C(c2ccccc2Cl)N(C)C1 (stereo unspecified) | > 200 µM | 20 µM | 
NC(=O)CCC(Nc1c2ccccc2nc2ccccc12)C(=O)O (stereo unspecified) |  |  | inactive
O=C(/C=C\c1ccc(-c2ccccc2)cc1)c1cccs1 | > 200 µM | 11.2 µM | 
